The values that follow come from the Kinase Knowledgebase extract (Sharma et al. 2016).

Assay [1] concerns the target PIK3CG (human) (UniProt P48736). Description: Assessment of PIK3CG Kinase Activity.
Assay [2] addresses PIK3CA (human) (UniProt P42336). Description: Assessment of PIK3CA Kinase Activity.
For assay [3], the target named is PIK3CD (Human) (UniProt O00329). Put plainly: Assessment of PIK3CD Kinase Activity.
The target of assay [4] is PIK3CB (Human) (UniProt P42338). Description: Assessment of PIK3CB Kinase Activity.
PIK3CB (Human), sequence (P42338 whole entry, looked up): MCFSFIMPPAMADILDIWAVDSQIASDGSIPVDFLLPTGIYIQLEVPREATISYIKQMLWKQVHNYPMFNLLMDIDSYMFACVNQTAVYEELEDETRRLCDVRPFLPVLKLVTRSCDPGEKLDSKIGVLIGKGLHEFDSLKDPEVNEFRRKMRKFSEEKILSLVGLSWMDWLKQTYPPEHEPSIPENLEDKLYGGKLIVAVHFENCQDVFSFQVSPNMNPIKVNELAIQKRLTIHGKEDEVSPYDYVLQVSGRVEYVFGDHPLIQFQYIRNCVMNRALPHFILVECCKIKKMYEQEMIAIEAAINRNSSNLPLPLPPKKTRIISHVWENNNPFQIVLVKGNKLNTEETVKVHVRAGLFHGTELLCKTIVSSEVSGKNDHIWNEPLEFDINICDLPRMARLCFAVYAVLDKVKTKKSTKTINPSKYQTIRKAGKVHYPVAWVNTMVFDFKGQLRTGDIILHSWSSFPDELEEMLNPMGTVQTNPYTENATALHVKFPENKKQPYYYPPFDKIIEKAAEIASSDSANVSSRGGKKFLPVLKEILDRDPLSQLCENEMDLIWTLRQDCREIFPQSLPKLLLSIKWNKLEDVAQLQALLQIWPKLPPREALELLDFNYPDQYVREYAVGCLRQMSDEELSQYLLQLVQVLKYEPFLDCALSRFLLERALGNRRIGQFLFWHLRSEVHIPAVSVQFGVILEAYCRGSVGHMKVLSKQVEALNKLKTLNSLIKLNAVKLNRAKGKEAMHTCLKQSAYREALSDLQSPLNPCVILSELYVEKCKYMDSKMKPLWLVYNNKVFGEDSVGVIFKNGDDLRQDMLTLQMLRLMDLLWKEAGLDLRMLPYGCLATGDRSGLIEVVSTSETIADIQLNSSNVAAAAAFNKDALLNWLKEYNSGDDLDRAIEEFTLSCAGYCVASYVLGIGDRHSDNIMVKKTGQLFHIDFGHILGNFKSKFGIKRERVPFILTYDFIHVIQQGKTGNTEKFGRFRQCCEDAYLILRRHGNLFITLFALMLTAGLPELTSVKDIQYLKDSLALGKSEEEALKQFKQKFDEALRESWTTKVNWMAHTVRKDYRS

Structures are written as SMILES. Some results are limits rather than exact numbers.

PIK3CA (human), sequence (P42336 whole entry, looked up): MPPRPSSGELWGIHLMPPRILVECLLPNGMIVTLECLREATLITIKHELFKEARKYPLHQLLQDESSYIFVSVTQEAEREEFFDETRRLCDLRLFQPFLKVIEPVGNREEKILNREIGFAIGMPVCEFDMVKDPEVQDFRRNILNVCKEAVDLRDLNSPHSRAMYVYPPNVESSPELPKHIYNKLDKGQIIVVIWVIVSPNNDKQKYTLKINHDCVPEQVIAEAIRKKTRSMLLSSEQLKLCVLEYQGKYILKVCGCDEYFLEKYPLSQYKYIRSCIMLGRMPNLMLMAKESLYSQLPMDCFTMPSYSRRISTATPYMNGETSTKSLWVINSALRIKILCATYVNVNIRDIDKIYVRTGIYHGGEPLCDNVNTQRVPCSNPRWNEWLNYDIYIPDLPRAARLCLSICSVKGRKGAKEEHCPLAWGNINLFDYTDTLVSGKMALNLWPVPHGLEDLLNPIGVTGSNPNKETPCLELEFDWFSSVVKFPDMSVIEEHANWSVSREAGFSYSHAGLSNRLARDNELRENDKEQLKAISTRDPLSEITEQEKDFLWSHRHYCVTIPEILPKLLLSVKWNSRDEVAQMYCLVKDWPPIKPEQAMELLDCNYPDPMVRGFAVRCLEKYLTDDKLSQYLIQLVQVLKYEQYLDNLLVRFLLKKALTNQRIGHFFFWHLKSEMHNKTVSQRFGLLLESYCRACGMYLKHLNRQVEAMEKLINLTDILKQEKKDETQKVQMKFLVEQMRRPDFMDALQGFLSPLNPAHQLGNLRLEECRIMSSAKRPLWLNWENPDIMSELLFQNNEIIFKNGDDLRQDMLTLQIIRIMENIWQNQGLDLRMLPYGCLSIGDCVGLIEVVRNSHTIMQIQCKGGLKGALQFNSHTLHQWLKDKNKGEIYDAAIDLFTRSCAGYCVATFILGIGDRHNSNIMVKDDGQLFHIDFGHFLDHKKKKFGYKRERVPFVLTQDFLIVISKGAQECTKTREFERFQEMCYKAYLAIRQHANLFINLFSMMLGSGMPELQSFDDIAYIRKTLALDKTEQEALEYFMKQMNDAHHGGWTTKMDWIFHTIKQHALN
PIK3CG (human), sequence (P48736 whole entry, looked up): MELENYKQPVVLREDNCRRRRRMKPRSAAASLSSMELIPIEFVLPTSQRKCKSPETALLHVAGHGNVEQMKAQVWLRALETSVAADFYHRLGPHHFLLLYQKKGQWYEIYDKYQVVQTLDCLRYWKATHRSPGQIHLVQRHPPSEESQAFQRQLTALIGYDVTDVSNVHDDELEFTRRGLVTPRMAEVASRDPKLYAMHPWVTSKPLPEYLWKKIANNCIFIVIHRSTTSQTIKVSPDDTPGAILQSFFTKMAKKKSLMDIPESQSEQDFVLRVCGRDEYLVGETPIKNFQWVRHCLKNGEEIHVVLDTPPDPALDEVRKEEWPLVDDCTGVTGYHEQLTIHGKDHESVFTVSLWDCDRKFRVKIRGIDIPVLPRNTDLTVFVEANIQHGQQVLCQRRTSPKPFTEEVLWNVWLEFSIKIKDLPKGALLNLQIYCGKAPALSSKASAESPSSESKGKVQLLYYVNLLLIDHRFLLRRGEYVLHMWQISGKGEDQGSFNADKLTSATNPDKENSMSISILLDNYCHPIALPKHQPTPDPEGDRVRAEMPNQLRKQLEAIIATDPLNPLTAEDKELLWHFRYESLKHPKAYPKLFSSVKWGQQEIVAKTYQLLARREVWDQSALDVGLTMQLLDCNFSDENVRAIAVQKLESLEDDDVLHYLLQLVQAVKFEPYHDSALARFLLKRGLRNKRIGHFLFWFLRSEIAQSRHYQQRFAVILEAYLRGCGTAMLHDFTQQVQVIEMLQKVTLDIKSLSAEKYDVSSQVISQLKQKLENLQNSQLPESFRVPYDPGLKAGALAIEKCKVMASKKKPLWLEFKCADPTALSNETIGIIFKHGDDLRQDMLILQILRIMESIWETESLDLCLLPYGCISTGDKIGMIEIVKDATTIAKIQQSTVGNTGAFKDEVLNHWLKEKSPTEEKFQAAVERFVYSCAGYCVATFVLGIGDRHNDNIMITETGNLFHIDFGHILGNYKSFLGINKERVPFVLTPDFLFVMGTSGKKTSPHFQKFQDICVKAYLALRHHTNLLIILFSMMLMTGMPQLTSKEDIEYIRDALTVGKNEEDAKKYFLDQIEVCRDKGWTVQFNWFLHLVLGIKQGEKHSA
PIK3CD (Human), sequence (O00329 whole entry, looked up): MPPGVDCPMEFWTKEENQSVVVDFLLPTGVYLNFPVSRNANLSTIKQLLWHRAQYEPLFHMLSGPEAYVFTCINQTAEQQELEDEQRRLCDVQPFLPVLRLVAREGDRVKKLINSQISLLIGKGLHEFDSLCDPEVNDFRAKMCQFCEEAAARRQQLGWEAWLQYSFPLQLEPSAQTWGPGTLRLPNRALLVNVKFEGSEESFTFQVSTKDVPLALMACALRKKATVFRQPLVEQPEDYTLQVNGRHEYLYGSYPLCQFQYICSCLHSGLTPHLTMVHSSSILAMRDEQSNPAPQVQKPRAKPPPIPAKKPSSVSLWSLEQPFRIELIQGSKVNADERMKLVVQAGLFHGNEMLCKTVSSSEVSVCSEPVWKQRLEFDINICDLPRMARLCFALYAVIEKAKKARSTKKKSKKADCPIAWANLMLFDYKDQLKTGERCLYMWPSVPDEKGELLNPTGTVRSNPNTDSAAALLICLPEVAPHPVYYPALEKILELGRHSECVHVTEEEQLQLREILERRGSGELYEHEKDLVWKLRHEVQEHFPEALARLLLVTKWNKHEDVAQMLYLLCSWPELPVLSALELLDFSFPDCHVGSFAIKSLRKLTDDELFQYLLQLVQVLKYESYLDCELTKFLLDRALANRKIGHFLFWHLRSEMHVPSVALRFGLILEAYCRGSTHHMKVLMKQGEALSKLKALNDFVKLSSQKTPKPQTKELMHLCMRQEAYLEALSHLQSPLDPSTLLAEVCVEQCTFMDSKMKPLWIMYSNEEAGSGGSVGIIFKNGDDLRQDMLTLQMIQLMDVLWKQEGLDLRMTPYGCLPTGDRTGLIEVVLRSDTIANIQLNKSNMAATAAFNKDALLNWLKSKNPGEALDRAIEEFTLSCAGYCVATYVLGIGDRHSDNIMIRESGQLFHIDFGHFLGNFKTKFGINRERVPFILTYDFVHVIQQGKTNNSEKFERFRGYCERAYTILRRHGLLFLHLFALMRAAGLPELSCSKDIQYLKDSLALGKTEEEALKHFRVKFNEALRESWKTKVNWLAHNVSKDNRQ

For orientation: IC50 means the concentration that inhibits the measured activity by half. A high value points to lower potency. Regarding `Cc1nc(Nc2cccnc2)nc2ccc(-c3cccc(O)c3)cc12`, the IC50 in assay [1], in assay [2] and in assay [3] was at most 100 nM each time.
As for `Cc1nc(N)nc2ccc(-c3cnc4[nH]ccc4c3)cc12`, the IC50 in assay [2] fell in the range of 500 to 1000 nM.
`CNc1nc(C)c2cc(-c3ccc(O)c(F)c3)ccc2n1` came in with an IC50 in assay [2] of 500 to 1000 nM.
As to `Cc1nc(Nc2cccnc2)nc2ccc(-c3cc(O)cc(F)c3)cc12`, the IC50 in assay [1], in assay [2] and in assay [3] was at most 100 nM in each case.
Turning to `Cc1nc(N)nc2ccc(-c3cccc(O)c3)cc12`, the IC50 in assay [1] is at most 100 nM; in assay [2], 100 to 500 nM; in assay [4], 100 to 500 nM; in assay [3] it was at most 100 nM.
For the compound `Nc1ncc2cc(-c3cccc(O)c3)ccc2n1`, in assay [2], the IC50 lay within 100 to 500 nM.
For `CNc1nc(C)c2cc(-c3cc(O)cc(F)c3)ccc2n1`, the IC50 in assay [1] is at most 100 nM; in assay [2] it was 100 to 500 nM; in assay [4], 500 to 1000 nM; in assay [3], at most 100 nM.
In the case of `CNc1nc(C)c2cc(-c3cnc4[nH]ccc4c3)ccc2n1`, the IC50 lay within 100 to 500 nM in assay [1] and 500 to 1000 nM in assay [2].
Turning to `CNc1nc(C)c2cc(-c3cccc(O)c3)ccc2n1`, the IC50 in assay [1] is at most 100 nM; in assay [2], 100 to 500 nM; in assay [3] it was 100 to 500 nM.
With `CNc1nc(C)c2cc(-c3ccc(O)c(Cl)c3)ccc2n1`, the IC50 in assay [2] was in the range of 500 to 1000 nM.
Compound `CNc1nc(C)c2cc(-c3ccc(F)c(O)c3)ccc2n1` displayed an IC50 in assay [2] of 500 to 1000 nM.
